Drawing on patent US12686692B2, “KRas G12D inhibitors” (Mirati Therapeutics, Inc., priority 2020, dated 2026), this text covers IC50 for 17 compounds.

Test [1] relates to KRas G12D-mediated Phosphorylation of ERK. Description: Inhibition of KRas G12D-mediated Phosphorylation of ERK in AGS cells. The class given is cell-based. To be noted: Homo sapiens; AGS cells expressing G12D, 3 hours, phospho-ERK normalized to GAPDH. Here is the method:
AGS cells (ATCC CRL-1739) expressing G12D were grown in DMEM medium supplemented with 10% fetal bovine serum, 10 mM HEPES, and Penicillin/Streptomycin. Cells were plated in tissue culture treated 96 well plates at a density of 40,000 cells/well and allowed to attach for 12-14 hours. Diluted compounds were then added in a final concentration of 0.5% DMSO. After 3 hours, the medium was removed, 150 μl of 4.0% formaldehyde was added and the plates incubated at room temperature for 20 minutes. The plates were washed with PBS, and permeabilized with 150 μL of ice cold 100% methanol for 10 minutes. Non-specific antibody binding to the plates was blocked using 100 μL Licor blocking buffer (Li-Cor Biotechnology, Lincoln NE) for 1 hour at room temperature.
The amount of phospho-ERK was determined using an antibody specific for the phosphorylated form of ERK and compared to the amount of GAPDH. Primary antibodies used for the detection were added as follows: Phospho-ERK(Cell Signaling cs-9101) diluted 1:500 and GAPDH(Millipore MAB374) diluted 1:5000 in Licor block+0.05% Tween 20. The plates were incubated for 2 hours at room temperature. The plates were washed with PBS+0.05% Tween 20.
Secondary antibodies used to visualize primary antibodies were added as follows: Anti-rabbit-680 diluted 1:1000 and Anti-mouse-800 diluted 1:1000 both in Licor block+0.05% Tween20, and were incubated for 1 hour at room temperature. The plates were washed with PBS+0.05% Tween 20. A 100 μl aliquot of PBS was added to each well and the plates were read on a Li-Cor Odyssey CLX plate reader.
The phospho-ERK(Thr202/Tyr204 signal was normalized to the GAPDH signal for each well and percent of DMSO control values were calculated. IC50 values were generated using a 4-parameter fit of the dose response curve.

The next test addresses KRas G12D (Homo sapiens, UniProt P01116, G12D). Description: KRas G12D Binding Assay (TR-FRET displacement of labeled tracer). Also on record: corresponding to amino acids 1:169, produced at Array BioPharma; biotin (protein is biotinylated). To be noted: TR-FRET displacement of Cy5 labelled tracer, biotinylated GDP-loaded KRAS G12D (aa 1:169), 60 minute incubation at 22° C. Here is the method: This Example illustrates that exemplary compounds of the present invention bind to KRas G12D and are capable of displacing a labeled tracer ligand occupying the KRas G12D binding site.
The ability of a compound to bind to KRAS G12D was measured using a TR-FRET displacement assay. Biotinylated GDP-loaded recombinant human KRAS G12D (corresponding to amino acids 1:169, produced at Array BioPharma) was incubated with a custom-made Cy5 labelled tracer, europium labelled streptavidin and compound (2% DMSO final) in buffer (50 mM HEPES [pH 7.5], 5 mM MgCl2, 0.005% Tween-20 & 1 mM DTT). After a 60 minute incubation at 22° C., the reaction was measured using a PerkinElmer EnVision multimode plate reader via TR-FRET dual wavelength detection, and the percent of control (POC) calculated using a ratiometric emission factor. […] The POC values were fit to a 4-parameter logistic curve and the IC50 value was determined as the concentration where the curve crosses 50 POC.
Background: Time-resolved FRET reads energy transfer from a long-lived donor to a nearby acceptor.

Broadly, the IC50 is the concentration at which inhibition is half-maximal. A higher IC50 goes with weaker potency.

Sequence of KRas G12D (P01116 1-169 isoform P01116-2 G12D): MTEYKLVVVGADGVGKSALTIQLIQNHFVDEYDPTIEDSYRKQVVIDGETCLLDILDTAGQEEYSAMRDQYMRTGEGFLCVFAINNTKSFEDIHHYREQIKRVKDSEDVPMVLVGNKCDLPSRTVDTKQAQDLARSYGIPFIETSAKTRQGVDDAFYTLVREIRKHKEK

For `CCc1c(F)ccc2cccc(N3CCc4c(nc(OCC56CCCN5CCC6)nc4N4C[C@H]5CC[C@@H](C4)N5)C3)c12` [Example 19, 4-((1R,5S)-3,8-diazabicyclo[3.2.1]octan-3-yl)-7-(8-ethyl-7-fluoronaphthalen-1-yl)-2-((tetrahydro-1H-pyrrolizin-7a(5H)-yl)methoxy)-5,6,7,8-tetrahydropyrido[3,4-d]pyrimidine], the IC50 was found to be 324 nM in test [1] and 1.8 nM at KRas G12D.

Take `F[C@H]1CN2CCCC2(COc2nc3c(c(N4CC5CCC(C4)N5)n2)CCN(c2cccc4cccc(C(F)(F)F)c24)C3)C1` (mixture of isomers) [Example 51, 4-((1R,5S)-3,8-diazabicyclo[3.2.1]octan-3-yl)-2-((2-fluorotetrahydro-1H-pyrrolizin-7a(5H)-yl)methoxy)-7-(8-(trifluoromethyl)naphthalen-1-yl)-5,6,7,8-tetrahydropyrido[3,4-d]pyrimidine]: the IC50 in test [1] is more than 16700 nM; on KRas G12D, 16.9 nM.

For the compound `CCc1cccc2cccc(N3CCc4c(nc(OCC56CCCN5C(COC(=O)N5CCS(=O)(=O)CC5)CC6)nc4N4C[C@H]5CC[C@@H](C4)N5)C3)c12` (mixture of isomers) [Example 67, (7a-(((4-((1R,5S)-3,8-diazabicyclo[3.2.1]octan-3-yl)-7-(8-ethylnaphthalen-1-yl)-5,6,7,8-tetrahydropyrido[3,4-d]pyrimidin-2-yl)oxy)methyl)hexahydro-1H-pyrrolizin-3-yl)methyl thiomorpholine-4-carboxylate 1,1-dioxide], the IC50 in test [1] is 150 nM; on KRas G12D, 1.5 nM.

As for `CCc1cccc2cc(O)cc(N3CCc4c(nc(OCC56CCCN5C[C@H](F)C6)nc4N4CC5CCC(C4)N5)C3)c12` (mixture of isomers) [Example 6, 4-(4-((1R,5S)-3,8-diazabicyclo[3.2.1]octan-3-yl)-2-((2-fluorotetrahydro-1H-pyrrolizin-7a(5H)-yl)methoxy)-5,8-dihydropyrido[3,4-d]pyrimidin-7(6H)-yl)-5-ethylnaphthalen-2-ol (racemic, trans)], the IC50 was 12 nM in test [1] and 0.8 nM on KRas G12D.

For `CCc1cccc2cccc(N3CCc4c(nc(OCC56CCCN5CC(F)C6)nc4N4C[C@H]5CC[C@@H](C4)N5)C3)c12` (mixture of isomers) [Example 9, 4-((1R,5S)-3,8-diazabicyclo[3.2.1]octan-3-yl)-7-(8-ethylnaphthalen-1-yl)-2-((2-fluorotetrahydro-1H-pyrrolizin-7a(5H)-yl)methoxy)-5,6,7,8-tetrahydropyrido[3,4-d]pyrimidine (racemic, trans)], the IC50 came out at 1660 nM in test [1] and 3.1 nM on KRas G12D.

Turning to `CCc1cccc2cc(O)cc(N3CCc4c(nc(OCC56CCCN5C(CF)CC6)nc4N4CC5CCC(C4)N5)C3)c12` (mixture of isomers) [Example 23, 4-(4-((1R,5S)-3,8-diazabicyclo[3.2.1]octan-3-yl)-2-((3-(fluoromethyl)tetrahydro-1H-pyrrolizin-7a(5H)-yl)methoxy)-5,8-dihydropyrido[3,4-d]pyrimidin-7(6H)-yl)-5-ethylnaphthalen-2-ol (mixture or isomers)], the values for the IC50 (in test [1]; on KRas G12D) were 119 nM and 1.1 nM, respectively.

With `CCc1cccc2cccc(N3CCc4c(nc(OCC56CCCN5C(COC(=O)N5CC[C@@H](OC)C5)CC6)nc4N4C[C@H]5CC[C@@H](C4)N5)C3)c12` (stereo partly drawn) [Example 106, (7a-(((4-((1R,5S)-3,8-diazabicyclo[3.2.1]octan-3-yl)-7-(8-ethylnaphthalen-1-yl)-5,6,7,8-tetrahydropyrido[3,4-d]pyrimidin-2-yl)oxy)methyl)hexahydro-1H-pyrrolizin-3-yl)methyl (3R)-3-methoxypyrrolidine-1-carboxylate], the figures for the half-inhibitory concentration (IC50) (in test [1]; at KRas G12D) were 5110 nM and 7.2 nM, respectively.

For `CCc1cccc2cc(O)cc(N3CCc4c(nc(OC[C@@]56CCCN5C[C@H](F)C6)nc4N4C[C@H]5CC[C@@H](C4)N5)C3)c12` [Example 7, 4-(4-((1R,5S)-3,8-diazabicyclo[3.2.1]octan-3-yl)-2-(((2R,7aS)-2-fluorotetrahydro-1H-pyrrolizin-7a(5H)-yl)methoxy)-5,8-dihydropyrido[3,4-d]pyrimidin-7(6H)-yl)-5-ethylnaphthalen-2-ol], the results for the IC50 (in test [1]; at KRas G12D) were 13 nM and 1 nM, respectively.

Turning to `CCc1cccc2cccc(N3CCc4c(nc(OC[C@]56CCCN5[C@@H](COC(=O)N(C)CCO)CC6)nc4N4C[C@H]5CC[C@@H](C4)N5)C3)c12` [Example 107, ((3R,7aR)-7a-(((4-((1R,5S)-3,8-diazabicyclo[3.2.1]octan-3-yl)-7-(8-ethylnaphthalen-1-yl)-5,6,7,8-tetrahydropyrido[3,4-d]pyrimidin-2-yl)oxy)methyl)hexahydro-1H-pyrrolizin-3-yl)methyl (2-hydroxyethyl)(methyl)carbamate], the IC50 in test [1] was determined as 408 nM; at KRas G12D, 2 nM.

Turning to `F[C@H]1CN2CCCC2(COc2nc3c(c(N4CC5CCC(C4)N5)n2)CCN(c2cccc4cccc(C5CC5)c24)C3)C1` (mixture of isomers) [Example 11], the values for the IC50 (in test [1]; at KRas G12D) were more than 16700 nM and 19.8 nM, respectively.

`Oc1cc(N2CCc3c(nc(OCC45CCCN4CCC5)nc3N3C[C@H]4CC[C@@H](C3)N4)C2)c2c(Cl)cccc2c1` [Example 115, 4-(4-((1R,5S)-3,8-diazabicyclo[3.2.1]octan-3-yl)-2-((hexahydro-1H-pyrrolizin-7a-yl)methoxy)-5,6-dihydropyrido[3,4-d]pyrimidin-7(8H)-yl)-5-chloronaphthalen-2-ol]: the IC50 amounted to 118 nM in test [1] and 0.6 nM at KRas G12D.

As for `CCc1c(F)ccc2cccc(N3CCc4c(nc(OCC56CCCN5C[C@H](F)C6)nc4N4CC5CCC(C4)N5)C3)c12` (mixture of isomers) [Example 20, 4-((1R,5S)-3,8-diazabicyclo[3.2.1]octan-3-yl)-7-(8-ethyl-7-fluoronaphthalen-1-yl)-2-((2-fluorotetrahydro-1H-pyrrolizin-7a(5H)-yl)methoxy)-5,6,7,8-tetrahydropyrido[3,4-d]pyrimidine (racemic, trans)], the results for the IC50 (in test [1]; on KRas G12D) were 539 nM and 2.8 nM, respectively.

On to `CCc1cccc2cccc(N3CCc4c(nc(OCC56CCCN5C(COC(=O)N(C)OC)CC6)nc4N4C[C@H]5CC[C@@H](C4)N5)C3)c12` (mixture of isomers) [Example 68, (7a-(((4-((1R,5S)-3,8-diazabicyclo[3.2.1]octan-3-yl)-7-(8-ethylnaphthalen-1-yl)-5,6,7,8-tetrahydropyrido[3,4-d]pyrimidin-2-yl)oxy)methyl)hexahydro-1H-pyrrolizin-3-yl)methyl methoxy(methyl)carbamate], for which the IC50 in test [1] came to 1330 nM; on KRas G12D, 5.9 nM.

In turn, `CCc1cccc2cccc(N3CCc4c(nc(OC[C@@]56CCCN5C[C@H](F)C6)nc4[C@@H]4C[C@H]5CC[C@@H](C4)N5)C3)c12` [Example 122, 4-((1R,3s,5S)-8-azabicyclo[3.2.1]octan-3-yl)-7-(8-ethylnaphthalen-1-yl)-2-(((2R,7aS)-2-fluorotetrahydro-1H-pyrrolizin-7a(5H)-yl)methoxy)-5,6,7,8-tetrahydropyrido[3,4-d]pyrimidine] registered an IC50 at KRas G12D of 234 nM.

`c1cc2c(c(N3CCc4c(nc(OCC56CCCN5CCC6)nc4N4C[C@H]5CC[C@@H](C4)N5)C3)c1)C(C1CC1)CC2` (stereo partly drawn) [Example 102, 4-((1R,5S)-3,8-diazabicyclo[3.2.1]octan-3-yl)-7-(3-cyclopropyl-2,3-dihydro-1H-inden-4-yl)-2-((tetrahydro-1H-pyrrolizin-7a(5H)-yl)methoxy)-5,6,7,8-tetrahydropyrido[3,4-d]pyrimidine] displayed an IC50 at KRas G12D of 654 nM.

On KRas G12D, `c1cc2c(c(N3CCc4c(nc(OCC56CCCN5CCC6)nc4N4C[C@H]5CC[C@@H](C4)N5)C3)c1)CCC2` [Example 104, 4-((1R,5S)-3,8-diazabicyclo[3.2.1]octan-3-yl)-7-(2,3-dihydro-1H-inden-4-yl)-2-((tetrahydro-1H-pyrrolizin-7a(5H)-yl)methoxy)-5,6,7,8-tetrahydropyrido[3,4-d]pyrimidine] came in with an IC50 of 756 nM.

In turn, `COC[C@H]1C[C@@H]2CN(c3nc(OC[C@@H]4CCCN4C)nc4c3CCN(c3cccc5cccc(Cl)c35)C4)C[C@H]1N2` (single isomer, unassigned) [Example 94] displayed an IC50 at KRas G12D of 852 nM.
